Experimental data published in patent US20250120916A1, “NANOTECHNOLOGY FOR CHEMOTHERA0PY DRUG CAPTURE” (The Regents of the University of California, priority 2021, published 2025).
Where a name gives a salt, the structure may show the parent alone. Read-outs that look alike come from different tables or passages of the source. Values belong to the compound of their own block, whether it stands above or below them.

Assays:
[1] = Hydrodynamic size (DLS) and ζ-potential measurements; type: physicochemical
Protocol: Hydrodynamic size and ζ-potential measurements: A Zetasizer Nano ZS from Malvern Panalytical Ltd was used to conduct dynamic light scattering (DLS) and electrokinetic measurements in folded capillary cells (DTS1070). Samples were prepared with an ENCC concentration of 0.1 mg mL−1 in 1 mg mL−1 of NaCl solution A final DOX concentration of 0.03 mg mL−1 was used to have an ˜1:10 molar ratio of DOX to the carboxylate of ENCC For ζ-potential measurements on DOX, the concentration was lowered to 0.003 mg mL−1. At least three measurements were taken for each DLS experiment, with 11 runs per measurement. For the ζ-potential tests, the number of measurements was at least three, with up to 100 runs per measurement.

fibroblast = details: literature (75); cited from earlier work
[2] = Biodetoxification test, HUVECs; details: human
Protocol: (§1) Biodetoxification tests: To determine the biodetoxification effect of ENCC, 5×10^3 NIH/3T3 cells or HUVECs were seeded in 96-well plates with 200 μL of DMEM supplemented with FBS (10% v/v) and 1% v/v of Pen-Strep or EGM bullet kit HUVEC media, respectively. The cells were allowed to attach to the bottom of wells for 1 h, the media were aspirated, and the cells were rinsed with 200 μL of DPBS, followed by the addition of 200 μL of corresponding media including DOX (final concentration=400 μg mL−1), which was previously detoxified by adding ENCC (final concentration=1 mg mL−1), centrifuged at 1000 rpm for 3 min, and separated from the precipitate. The control experiments were conducted in corresponding DOX-free cell culture media or DOX-containing media without ENCC treatment. Each group consisted of 5 wells. After 8 h, the media was aspirated, the cells were rinsed twice with 200 μL of DPBS, followed by the addition of 100 μL of PrestoBlue™ reagent to each well. The cells were incubated for 1 h, and then the PrestoBlue™ absorbance was recorded using the microplate reader. Immediately afterwards, the cells were again rinsed twice with 200 μL, of DPBS, followed by the addition of 150 μL, of the Live/Dead reagents. The cells were incubated for 90 min and imaged using the fluorescence microscope. The fluorescence images were analyzed using the Imagej Software.(62)

HUVECs = assay: Biodetoxification test, HUVECs; details: untreated DOX 400 μg mL−1 media, 8 h
Protocol: as §1

[3] = Biodetoxification test, NIH/3T3 fibroblasts; details: mouse, NIH/3T3 fibroblasts
Protocol: as §1

NIH/3T3 fibroblasts = assay: Biodetoxification test, NIH/3T3 fibroblasts; details: NIH/3T3, untreated DOX 400 μg mL−1 media, 8 h
Protocol: as §1

[4] = system: red blood cells (RBCs) in human whole blood; assay: Hemolysis assessment (ASTM E2524-08); type: cell-based
Protocol: Hemolysis assessment: The hemolytic activity of ENCC was measured via exposing human whole blood, withdrawn from 3 healthy volunteer donors by another lab, to varying concentrations of ENCC and measuring the concentration of released hemoglobin in plasma according to the American Society for Testing and Materials (ASTM) E2524-08 (2013) standard analysis of hemolytic activity of nanoparticles.(61) A colorimetric technique was used to measure the oxidation of […] (Drabkin's reagent) at an absorbance of 540 nm A calibration curve was obtained using […] of pure human hemoglobin to quantify the concentration of released hemoglobin in heparinized human whole blood exposed to ENCC The blood samples were diluted in DPBS to have 10±2 mg of hemoglobin per mL. ENCC was added to a microcentrifuge tube, followed by the addition of DPBS (800 μL) and the diluted blood (100 μL). After gently mixing the samples, they were incubated for 3 h±15 min at 37° C. and centrifuged for 15 min at 14000 rpm and ambient temperature. […] A microplate reader (540 nm, BioTek UV/vis Synnergy 2, USA) was then used to measure the relative absorbance of each well against the reagent blank to correct the background (blood-free samples) absorbance. The hemolysis percentage was measured based on the hemoglobin concentration in the samples divided by the total blood hemoglobin (˜10 mg mL−1). […]

[5] = DOX:COO− ~0.1, ENCC 100 μg mL−1

hydrodynamic size after ENCC addition [1, 5]: ~350 nm
ζ-potential after ENCC addition [1, 5]: ~−32 mV
hydrodynamic size of DOX aggregates ([1]; before ENCC addition): ~66 nm
ζ-potential of DOX aggregates ([1]; before ENCC addition): ~+24 mV
Compound: COc1cccc2c1C(=O)c1c(O)c3c(c(O)c1C2=O)C[C@@](O)(C(=O)CO)C[C@@H]3O[C@H]1C[C@H](N)[C@H](O)[C@H](C)O1 [DOX, Doxorubicin hydrochloride]
DOX concentration that induces fibroblast cellular toxicity (fibroblast): above 5×10^−5 M
viability at 8 h, 400 μg mL−1 [2]: ~35%
decrease in metabolic activity (PrestoBlue) (HUVECs): more than 2000%
viability at 8 h, 400 μg mL−1 [3]: < 10%
decrease in metabolic activity (PrestoBlue) (NIH/3T3 fibroblasts): more than 2000%

Compound: Triton X-100
hemolysis percentage (controls) ([4]; Triton X-100 1% v/v positive control, PEG 4.4% v/v negative control): > 95%

Compound: polyethylene glycol [PEG]
hemolysis percentage (controls) [4]: does not induce significant hemolysis
